Measurements published in US20240398783A1, “Compounds and Pharmaceutical Compositions Comprising Inhibitors of Amyloid Peptide Interactions with Glycosaminoglycans, Methods of Treatment and Use Thereof” (Gismo Therapeutics, Inc., priority 2021, published 2024).
Where a name gives a salt, the structure may show the parent alone. Read-outs that look alike come from different tables or passages of the source.

Assays:
Design in all cases: species or system porcine
[1] = target: Amyloid-beta(1-40) binding to heparin (HS-GAG) (Homo sapiens, UniProt P05067); experiment: Inhibition of Amyloid-beta(1-40) binding to immobilized heparin-BSA (ELISA); details: for IC50: Abeta(1-40), co-incubation on heparin-BSA plates; for inhibition at 30 µM: read-out: Abeta40/Heparin Activity (% inhibition class)
Procedure: (§1) Porcine intestinal mucosa heparin conjugated to Bovine Serum Albumin (Heparin-BSA) was prepared as described (Najjam, S. et al. 1997, Cytokine 12, 1013-1022). Heparin is a sulfated HS-GAG and is commonly used as a HS-GAG in biochemical and binding assays (Lindahl, U. and Kjellen, L. (2013) ibid). Heparin-BSA at 0.01 mg/ml in Phosphate Buffered Saline (PBS; pH 7.4) was added to a 96 well polystyrene ELISA plate (NUNC Cat. No. 449824; 100 μl per well) and incubated Over Night (ON) at 4 degrees Celsius. For negative controls, ELISA plates were coated with BSA instead of Heparin-BSA, using the same procedure. Following the incubation, the plate was washed consecutively, by immersion, with de-ionized water and PBS (pH 7.4). The ELISA plate was then blocked with nonfat milk (2%, 200 μl per well) for 2 hours at Room Temperature (RT) with gentle shaking. Following blocking, the plate was washed with de-ionized water then PBS (pH 7.4). GBAPs were dissolved and diluted in PBS (pH 6.5, supplemented with 0.1% BSA) at desired concentrations, added to the ELISA plates containing immobilized Heparin-BSA (100 μl per well) and incubated for 2 hours at RT with gentle shaking. Following incubation, the plate was washed with de-ionized water and three times with PBS (pH 6.5) plus Tween. Bound GBAP was detected by a monoclonal antibody specific for that GBAP, followed by incubation with secondary antibody conjugated to horseradish peroxidase (HRP). Antibody was diluted in PBS (pH 6.5 supplemented with 1% BSA). Following each incubation with antibody, the plate was washed with de-ionized water and three times with PBS (pH 6.5) wash buffer containing 0.1% Tween. The peroxidase substrate chromogen, TMB (Dako Cat. No. S1599) was added (100 μl per well) to the ELISA plate and incubated at room temperature. After 5 minutes ELISA Stop Solution (hydrochloric acid 1N, sulfuric acid 3N) was added (100 μl per well) to stop the peroxidase catalyzed colorimetric reaction. The Optical Density of the samples was measured at 450 nm using an ELISA plate reader (BioTek Synergy H1). Following color development, the % inhibition compared to control (BSA-coated plates) was determined. IC-50s were calculated using GraphPad Prism software.
(§2) The assay was performed as described in Example 43, with the following modifications. Following to coating the plates with Heparin-BSA, plates were washed as described. The compounds were dissolved in DMSO at 10 mM final concentration and further diluted prior to assay. DMSO concentration in the screening well was up to 2%. Individual compounds were co-incubated with Beta-amyloid peptides on plates containing immobilized heparin. Beta-amyloid (1-42) was purchased from rPeptide (Cat. No. A1163) and used to prepare oligomers according to Stine et al., 2003 (J Biol Chem. 278(13):11612-22) as follows. 1,1,1,3,3,3-Hexafluoro-2-propanol- (HFIP; Sigma Cat. No. 105228)-treated Beta amyloid (1-42) was dissolved in dry DMSO (Sigma Cat. No. D2650) to 5 mM concentration. Dissolved Beta amyloid (1-42) was then diluted to 100 μM in ice-cold cell culture medium (phenol red-free Ham's F-12; Caisson Labs, Cat. No. HFL05), followed immediately by vortexing for 30 seconds, and incubating at 4 degrees Celsius for 24 h. Resulting Beta amyloid (1-42) oligomers were centrifuged at 12,000 rpm for 10 min at 4 degree Celsius to remove aggregates. Oligomers were then quickly frozen and kept in aliquots at −80 degrees Celsius. Beta-amyloid (1-40) from rPeptide (Cat No. A1153) was dissolved in DMSO, quickly frozen and kept in aliquots at −80 degrees Celsius. Beta-amyloid (1-42) oligomers or Beta-amyloid (1-40) diluted in PBS (pH 6.5, supplemented with BSA, 0.1%) were added to the ELISA plate (100 μl per well) and incubated for 2 hours at RT with gentle shaking. Following the incubation, the plate was washed with de-ionized water and three times with PBS (pH 6.5) plus Tween. […]

[2] = target: Tau binding to heparin (HS-GAG) (Homo sapiens, UniProt P10636); experiment: Inhibition of Tau binding to immobilized heparin-BSA (ELISA); details: for IC50: Tau, heparin-BSA; for inhibition at 30 µM: read-out: Tau/Heparin Activity (% inhibition class)
Procedure: as §1
The assay was performed as described in Example 43, with the following modifications. Following to coating the plates with Heparin-BSA, plates were washed as described. The compounds were dissolved in DMSO at 10 mM final concentration and further diluted prior to assay. DMSO concentration in the screening well was up to 2%. Individual compounds were co-incubated with Tau on plates containing immobilized heparin. Tau purchased from rPeptide (Cat. No. T1001) was dissolved in DMSO (Sigma Cat. No. D2650), quickly frozen and kept in aliquots at −80 degrees Celsius. Tau dissolved in PBS (pH 6.5, supplemented with BSA, 0.1%) was added to the ELISA plate (100 μl per well) and incubated for 2 hours at RT with gentle shaking. Following the incubation, the plate was washed with de-ionized water and three times with PBS (pH 6.5) plus Tween. Bound Tau was detected by anti-Tau Monoclonal Antibody D-8 (Santa Cruz Cat. No. sc-166060), followed by secondary anti-IgG antibody conjugated to HRP (R&D System, Cat. No. HAF007). Following to color development with TMB, as described in Example 43, the Optical Density of the samples was measured at 450 nm using an ELISA plate reader. Following color development, the % inhibition compared to control (no compound, DMSO control) for every compound was determined.
An example of inhibition curve is shown in FIG. 3 for Inhibitor Compounds 3 and 6. As described in Example 43, Heparin in the form of Heparin-BSA conjugate is used as a source of HS-GAG. For each compound IC-50 value in Tau—heparin-BSA binding assay is shown in […]. In some cases IC-50 was not measured and […] at 30 μM compound concentration is shown instead. […]

[3] = target: T1, Amyloid-beta(1-42) oligomer binding to heparin (HS-GAG) (Homo sapiens, UniProt P05067); experiment: Inhibition of Amyloid-beta(1-42) oligomer binding to immobilized heparin-BSA (ELISA); details: for IC50: co-incubation on heparin-BSA plates, read-out: Abeta42/Heparin Activity (IC-50); for inhibition at 30 µM: read-out: Abeta42/Heparin Activity (% inhibition class)
T1 construct: Beta-amyloid (1-42) was purchased from rPeptide (Cat. No. A1163); purchased rPeptide A1163
Procedure: as §1, §2

[4] = Abeta40/Heparin Activity (IC-50)
[5] = read-out: Abeta40/Heparin Activity (IC-50)
[6] = read-out: Tau/Heparin Activity (IC-50)
[7] = 30 μM compound, Abeta(1-42) oligomers, heparin-BSA

Sequence of Tau binding to heparin (HS-GAG) (P10636 with tags, fused parts or gaps): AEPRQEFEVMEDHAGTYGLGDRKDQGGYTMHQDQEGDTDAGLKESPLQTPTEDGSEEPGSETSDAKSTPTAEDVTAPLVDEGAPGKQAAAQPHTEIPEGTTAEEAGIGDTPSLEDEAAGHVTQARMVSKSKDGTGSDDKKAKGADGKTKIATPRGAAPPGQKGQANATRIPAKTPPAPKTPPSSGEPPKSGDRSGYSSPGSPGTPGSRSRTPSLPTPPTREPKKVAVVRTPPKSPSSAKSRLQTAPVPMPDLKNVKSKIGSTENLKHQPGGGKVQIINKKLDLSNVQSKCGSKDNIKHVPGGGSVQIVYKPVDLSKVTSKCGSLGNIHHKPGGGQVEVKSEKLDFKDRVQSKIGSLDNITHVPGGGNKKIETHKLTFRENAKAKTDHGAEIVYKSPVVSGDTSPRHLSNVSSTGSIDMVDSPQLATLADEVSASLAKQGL
Sequence of Amyloid-beta(1-40) binding to heparin (HS-GAG) (P05067 672-711): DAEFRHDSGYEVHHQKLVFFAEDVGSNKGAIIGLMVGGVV
T1 sequence (P05067 672-713): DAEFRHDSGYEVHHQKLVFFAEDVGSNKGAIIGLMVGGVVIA

Row | SMILES | IC50 [1, 4] [µM] | IC50 ([2]; Tau/Heparin Activity (IC-50)) [µM] | IC50 ([3]; Abeta(1-42) oligomers) [µM] | IC50 [2, 6] [µM] | inhibition at 30 µM [3] [%] | further results
1 | C/C(=N\Nc1ncnc2cc(Cl)ccc12)c1ccc(-n2cnc(C)c2C)nc1 [Compound 16, 7-chloro-4-(2-(1-(6-(4,5-dimethyl-1H-imidazol-1-yl)pyridin-3-yl)ethylidene)hydrazineyl)quinazoline phosphate] | 4.37 | 3.92 | 5.48 | – | – | –
2 | C/C(=N\Nc1ncnc2cc(Cl)ccc12)c1ccc(-n2cc[n+](C)c2)nc1 [Compound 17, (E)-1-(5-(1-(2-(7-chloroquinazolin-4-yl)hydrazineylidene)ethyl)pyridin-2-yl)-3-methyl-1H-imidazol-3-ium iodide phosphoric acid salt] | 28.1 | 12.2 | 11.7 | – | – | –
3 | C/C(=N\Nc1ncnc2cc(Cl)ccc12)c1ccc(-n2cc(C)nc2C)nc1 [Compound 18, (E)-7-chloro-4-(2-(1-(6-(2,4-dimethyl-1H-imidazol-1-yl)pyridin-3-yl)ethylidene)hydrazineyl)quinazoline phosphoric acid salt] | – | – | 13.6 | 13.6 | – | IC50 [1, 5]: 3.31 µM
4 | C/C(=N\Nc1ncnc2ccccc12)c1ccc(-n2cc(C)nc2C)nc1 [Compound 19, (E)-4-(2-(1-(6-(2,4-dimethyl-1H-imidazol-1-yl)pyridin-3-yl)ethylidene)hydrazineyl)quinazoline] | 10.2 | 46.6 | – | – | < 30 | –
5 | CN1CCN(c2cc(Nc3ccnc4cc(Cl)ccc34)ccn2)CC1 [Compound 20, 7-chloro-N-(2-(4-methylpiperazin-1-yl)pyridin-4-yl)quinolin-4-amine] | – | – | – | – | < 30 | inhibition at 30 µM [1]: < 30%; inhibition at 30 µM [2]: < 30%
6 | C/C(=N\Nc1ncnc2cc(F)ccc12)c1ccc(-n2cnc(C)c2C)nc1 [Compound 21, (E)-4-(2-(1-(6-(4,5-dimethyl-1H-imidazol-1-yl)pyridin-3-yl)ethylidene)hydrazineyl)-7-fluoroquinazoline] | – | – | 9.5 | 80.9 | – | IC50 [1, 5]: 7.41 µM
7 | CC(=NNc1ccnc2cc(Cl)ccc12)c1ccc(-n2cnc(C)c2C)nc1 [Compound 22, 7-chloro-4-(2-(1-(6-(4,5-dimethyl-1H-imidazol-1-yl)pyridin-3-yl)ethylidene)hydrazineyl)quinoline] | 16.3 | 28.2 | – | – | > 30 | –
8 | CC(=NNc1ccnc2cc(Cl)ccc12)c1ccc(-n2cc[n+](C)c2)nc1 [Compound 23, 1-(5-(1-(2-(7-chloroquinolin-4-yl)hydrazineylidene)ethyl)pyridin-2-yl)-3-methyl-1H-imidazol-3-ium iodide] | – | 25.7 | – | – | – | inhibition at 30 µM [1]: > 30%; inhibition at 30 µM [3, 7]: < 30%
9 | C/C(=N\Nc1nncc2cc(Cl)ccc12)c1ccc(-n2cc(C)nc2C)nc1 [Compound 24, (E)-6-chloro-1-(2-(1-(6-(2,4-dimethyl-1H-imidazol-1-yl)pyridin-3-yl)ethylidene)hydrazineyl)phthalazine] | – | – | 16.9 | 37.9 | – | IC50 [1, 5]: 6.42 µM
10 | Cc1ncn(-c2ccc(Nc3ncnc4cc(Cl)ccc34)cn2)c1C [Compound 25, 7-chloro-N-(6-(4,5-dimethyl-1H-imidazol-1-yl)pyridin-3-yl)quinazolin-4-amine] | 1.7 | – | 9.9 | – | – | inhibition at 30 µM [2]: < 30%
11 | C/C(=N\Nc1ncnc2cc(F)ccc12)c1ccc(-n2cc[n+](C)c2)nc1 [Compound 26, (E)-1-(5-(1-(2-(7-fluoroquinazolin-4-yl)hydrazineylidene)ethyl)pyridin-2-yl)-3-methyl-1H-imidazol-3-ium phosphoric acid salt] | 10.2 | 17.7 | – | – | > 30 | –
12 | C/C(=N\Nc1ncnc2cc(Cl)ccc12)c1ccc(-n2cc(C)nc2C)nc1 [Compound 27, (E)-7-chloro-4-(2-(1-(6-(2,4-dimethyl-1H-imidazol-1-yl)pyridin-3-yl)ethylidene)hydrazineyl)quinazoline hydrochloride] | 2.2 | – | – | 2.86 | > 30 | –
13 | CC(=NNc1ncnc2cc(Cl)ccc12)c1ccnc(-n2cnc(C)c2C)c1 [Compound 28, 7-chloro-4-(2-(1-(2-(4,5-dimethyl-1H-imidazol-1-yl)pyridin-4-yl)ethylidene)hydrazineyl)quinazoline] | – | – | 12.9 | 61.8 | – | IC50 [1, 5]: 3.12 µM
14 | C/C(=N\Nc1ncnc2cc(Cl)ccc12)c1cccc(N2CCN(C)CC2)c1 [Compound 30, 7-chloro-4-(2-(1-(3-(4-methylpiperazin-1-yl)phenyl)ethylidene)hydrazineyl)quinazoline] | – | 32.2 | – | – | > 30 | inhibition at 30 µM [1]: > 30%
15 | COc1cc(Nc2nncc3cc(Cl)ccc23)cnc1-n1cnc(C)c1C [Compound 31, 6-chloro-N-(6-(4,5-dimethyl-1H-imidazol-1-yl)-5-methoxypyridin-3-yl)phthalazin-1-amine phosphoric acid salt] | 23.3 | 33.7 | – | – | – | inhibition at 30 µM [3, 7]: < 30%
16 | COc1cc(Nc2cncc3cc(Cl)ccc23)cnc1-n1cnc(C)c1C [Compound 33, 7-chloro-N-(6-(4,5-dimethyl-1H-imidazol-1-yl)-5-methoxypyridin-3-yl)isoquinolin-4-amine phosphoric acid salt] | – | 24.7 | – | – | – | inhibition at 30 µM [1]: < 30%; inhibition at 30 µM [3, 7]: < 30%
